Assays:
[1] = test system: PTZ-induced seizures in mice; assay: Mouse PTZ-induced seizure assay (PTZ tail vein infusion); assay type: in vivo
Method: Mice were randomly divided into groups of five animals (vehicle (where vehicle was polyethylene glycol 200 (PEG200):water 1:1) and sample). The animals were pre-warmed under an infrared lamp for 10 minutes to dilate the tail veins. They were then placed in a restrainer and the lateral tail vein was catheterized with 1-cm long, 29-gauge needle. The needle was secured to the tail with surgical tape after confirming a correct placement. The needle was attached to a 0.7-m long polyethylene tubing connected to two 2.5-ml glass syringes containing: a) sample (control vehicle or test compounds) and b) PTZ (7.5 mg/ml ddH2O). These syringes were mounted on an infusion pump (ALADOIN-1000 11 VDC, 0.75 Å, World Precision Instruments). Thus, 100 μL of control vehicle (PEG 200: ddH2O 1:1) or test compounds (turmeric oil and ar-turmerone) were IV infused at the rate of 50 μl/min for 2 minutes. Ten minutes later, mice were released from the restrainer and placed in a transparent plastic cage for observation.
PTZ was constantly infused at the rate of 150 μl/min. Seizure manifestation stages in mice were scored according to the time between the start of PTZ infusion and the following behavioral events: ear, tail and myoclonic twitch, forelimb clonus, falling, tonic hindlimb extension and death (28). Behavior was observed up to 5 minutes of PTZ infusion. In case of any surviving mice, they were sacrificed.
PTZ doses were calculated according to the formula: PTZ dose [mg/kg]=(PTZ concentration [mg/ml]×infusion rate [ml/s]×infusion duration [s]×1000)/mouse weight [g]). All work solutions contained heparine (20 μl/ml).
All statistical analyses were performed using GraphPad Prism 5 software (GraphPad Software, Inc.). Values were presented as means±standard deviation (SD). […] For mouse experiments, significant differences between estimated time intervals prior to above-mentioned seizure stages were calculated using the unpaired Student's t-test.

[2] = test system: PTZ-induced seizures in zebrafish larvae; assay: Zebrafish PTZ seizure assay (videotracking of larval locomotor activity); assay type: in vivo
Method: Zebrafish larvae from 7-dpf were tracked using the ViewPoint VideoTrack System for Zebrafish™ (Version 2.3.1.0, ViewPoint, France). The system consists of an infrared light source, a high-resolution digital videocamera to capture larval movements within a defined time period (30 minutes in our experimental set-up) and the software to analyze larval locomotor activity (FIG. 1).
The highest concentration tested corresponds to the previously determined MTC. Zebrafish larvae were placed in a 96-well plate (tissue culture plate, flat bottom, FALCON®, USA); one larva per well. Each row of the plate (12 wells) comprised different treatment groups. Two adjacent rows contain the same compound but received two different treatments: a) first row, embryo medium (DMSO 1%), and b) second row, PTZ 20 mM. The first two rows of the plate (vehicle control group, where vehicle was embryo medium) contained a volume of 100 μl of embryo medium (1% DMSO) per well. The following three test groups (two rows each) contained 100 μl of different concentrations of test compound in embryo medium. The larvae thus treated were incubated at room temperature in dark and quiet conditions for 1 hour. Embryo medium (100 μl) was added to the first rows of each one of the four groups. Likewise, 100 μl of PTZ 40 mM were added to the second rows of each treatment group (final concentration of PTZ: 20 mM). Thus, the movement pattern of the exposed zebrafish larvae was video-tracked and assessed in presence of embryo medium (1% DMSO) and PTZ 20 mM. Videotracking of larval movements was started 5 minutes after addition of embryo medium or PTZ to the wells and was recorded for 30 minutes. A total of 8 wells in each plate were left without larvae (medium only) as a negative control, so that each experimental parameter consisted of an average of 10 to 12 larvae. The tracker software measured three periods of 10 minutes of larvae movement. Results were registered as the average value of the total time of larvae movement during 30 minutes. The figures shown are representative of a series of two similar experiments.
All statistical analyses were performed using GraphPad Prism 5 software (GraphPad Software, Inc.). Values were presented as means±standard deviation (SD). The locomotor activity of zebrafish larvae was analyzed using one-way ANOVA followed by Dunnett's multiple comparison test. Statistically significant differences (p<0.05) between a treated group and the equivalent control groups (vehicle or PTZ) were considered indicative of decrease or increase in locomotor activity of zebrafish larvae. For mouse experiments, significant differences between estimated time intervals prior to above-mentioned seizure stages were calculated using the unpaired Student's t-test.

[3] = test system: 6 Hz corneal stimulation-induced seizures in mice; assay: 6 Hz psychomotor seizure model of partial epilepsy; assay type: in vivo, mouse
Method: For assessing the anti-convulsant activity of ar-Tumerone, the 6 Hz psychomotor seizure model of partial epilepsy (Barton M. E. et al., 2001) was used, thereby applying the following stimulation parameters: 6 Hz, 0.2 ms rectangular pulse width, 3 s duration.
Every mouse (male NMRI+/−30 g) was administered the compound (ar-tumerone 50 mg/kg, 20 mg/kg, 1 mg/kg and 100 μg/kg) or vehicle (PEG 200:DMSO 1:1) via i.p. injection. After 30 minutes of incubation, seizures were induced via corneal stimulation using the Ugo-Basil device. Prior to the placement of corneal electrodes, a drop of 0.5% xylocaine was applied to the eyes of the animal. Animals were restrained manually and released immediately in a transparent plastic cage following the stimulation. Then, the animal was observed. The seizure was characterized by stun, forelimb clonus, twitching of vibrissae, straub-tail for at least 45 s. Protection was defined as the absence of a seizure. A minimum of six animals per dose was used. […] Negative control (only vehicle) and positive control (valproic acid 300 mg/kg) were included as well. As expected, 6 out of 6 mice treated with only vehicle were not protected and 6 out of 6 mice treated with valproic acid were protected.

[4] = 10 μg/mL, 1 hour pre-incubation, PTZ 20 mM, 30 min tracking
[5] = 46 μM, PTZ 20 mM, 30 min tracking

**Q.** `CC(C)=CC(=O)C[C@H](C)c1ccc(C)cc1` [ar-turmerone] was tested. Which “required dose of PTZ to trigger all assessed events” value ([1]; 50 mg/kg infused, tonic hindlimb extension p<0.05, other events and death p<0.01) did it give?
**A.** significant resistance to the generation of seizures

**Q.** And the “PTZ dose for generating seizure behaviors” value ([1]; 200 mg/kg, ear, tail and myoclonic twitch, tonic hind limb extension and death (p<0.05))?
**A.** significant PTZ dose increase

**Q.** And the “anticonvulsant activity (decrease of PTZ-induced seizure movements)” value [2, 4]?
**A.** Significant decrease of the seizures triggered by PTZ

**Q.** What about the “anticonvulsant activity (decrease of PTZ-induced seizure movements)” value [2, 5] of the same molecule?
**A.** anticonvulsant activity

**Q.** And the “mice protected from seizures” value ([3]; 100 μg/kg i.p., 30 minutes before stimulation, n=6)?
**A.** Six out of six

**Q.** And the “mice protected from seizures” value ([3]; 1 mg/kg i.p., 30 minutes before stimulation, n=6)?
**A.** Six out of six

**Q.** And the “mice protected from seizures” value ([3]; 20 mg/kg i.p., 30 minutes before stimulation, n=6)?
**A.** Six out of six

**Q.** And the “mice protected from seizures” value ([3]; 50 mg/kg i.p., 30 minutes before stimulation, n=6)?
**A.** Six out of six

**Q.** `COc1cc(/C=C/C(=O)CC(=O)/C=C/c2ccc(O)c(OC)c2)ccc1O` [curcumin, reference compound] was tested. Which “anticonvulsant activity (decrease of PTZ-induced seizure movements)” value ([2]; concentration not given) did it give?
**A.** potent activity in inhibiting PTZ-induced seizures

**Q.** What does the source list for `CN1C(=O)CN=C(c2ccccc2)c2cc(Cl)ccc21` [diazepam, reference compound]?
**A.** anticonvulsant activity (decrease of PTZ-induced seizure movements) ([2]; 1.42 μg/ml, PTZ 20 mM, 30 min tracking): decreased PTZ-induced movements; anticonvulsant activity (decrease of PTZ-induced seizure movements) ([2]; 14.23 μg/ml, PTZ 20 mM, 30 min tracking): decreased PTZ-induced movements

**Q.** What does the source list for `O=C1NC(=O)C(c2ccccc2)(c2ccccc2)N1` [phenytoin, reference compound]?
**A.** anticonvulsant activity (decrease of PTZ-induced seizure movements) ([2]; 75 μg/ml, PTZ 20 mM, 30 min tracking): significant activity; anticonvulsant activity (decrease of PTZ-induced seizure movements) ([2]; 252.26 μg/ml, PTZ 20 mM, 30 min tracking): significant activity

**Q.** Which results are given for `CCCC(CCC)C(=O)[O-].[Na+]` [sodium valproate, reference compound]?
**A.** delay of seizure behaviors (PTZ tail infusion) ([1]; 50 mg/kg, tonic hindlimb extension p<0.01, death p<0.05): capable of delaying tonic hindlimb extension; anticonvulsant activity (decrease of PTZ-induced seizure movements) ([2]; concentration not given): able to control seizures generation

**Q.** Which “mice protected from seizures” value ([3]; 300 mg/kg, positive control) does the source give for `CCCC(CCC)C(=O)O` [valproic acid, reference compound] here?
**A.** 6 out of 6

**Q.** How did the “anticonvulsant activity (decrease of PTZ-induced seizure movements)” value ([2]; 5 μg/mL, 1 hour pre-incubation, PTZ 20 mM, 30 min tracking) turn out when α-atlantone was run?
**A.** Significant decrease of the seizures triggered by PTZ

**Q.** And the “anticonvulsant activity (decrease of PTZ-induced seizure movements)” value [2, 4]?
**A.** Significant decrease of the seizures triggered by PTZ

**Q.** And the “anticonvulsant activity (decrease of PTZ-induced seizure movements)” value ([2]; 23 μM, PTZ 20 mM, 30 min tracking)?
**A.** anticonvulsant activity

**Q.** And the “anticonvulsant activity (decrease of PTZ-induced seizure movements)” value [2, 5]?
**A.** anticonvulsant activity
